This note sets out measurements from ChEMBL document CHEMBL6074712, “Optimization of Potent and Selective Cyclohexyl Acid ERAP1 Inhibitors Using Structure- and Property-Based Drug Design” (ACS Med Chem Lett, 2024).

This series can be described thus: physchem. Particulars: buffer.
Description: Aqueous solubility of compound
Usually solubility (kinetic) stands for solubility judged after dilution from a stock solution rather than from solid. As for `O=C(Cn1c(=O)oc2ccc(-c3ccccc3)cc21)NC1(C(=O)O)CCCCC1`, the solubility (kinetic) is not below 157 µg/mL.
`O=C(CN1C(=O)COc2ccc(C(F)(F)F)cc21)NC1(C(=O)O)CCCCC1` had a solubility (kinetic) not below 172 µg/mL.
Consider `O=C(CN1C(=O)COc2ccc(Cl)cc21)NC1(C(=O)O)CCCCC1`, for which the kinetic solubility is not below 112 µg/mL.
